{"source": "patent US12109218B2", "about": "“Compositions of grapiprant and methods for using the same” (ARATANA THERAPEUTICS, INC., priority 2014, dated 2024)", "system": "meniscal release model of osteoarthritis", "test": "Meniscal release model of osteoarthritis in dogs (Example 8)", "format": "in vivo", "settings": "5 mg/kg daily", "experimental": "Twenty intact adult female hounds underwent surgical meniscal release of the right stifle and were maintained for at least 8 weeks to allow osteoarthritis to develop. […] Animals were randomized into three groups: negative control (n=6), positive control (n=7) treated with 5 mg/kg firocoxib daily, and grapiprant (n=7) dosed once daily at 30 mg/kg. Dosing was based on baseline bodyweight.\nBaseline physical exams, bodyweights, hematology, serum chemistry and urinalysis were obtained on study Day −1 and repeated on Day 13. Orthopedic assessments were conducted on Day −1, Day 2, Day 6, and Day 13, including a kinetics assessment using the GAITRite system to determine left hindlimb: right hindlimb ratios for peak pressure, stride length, step length, and stance time, a 5-point scale lameness evaluation, VAS assessments of right hindlimb function, right stifle pain and effusion, and comfortable range of motion measurements of both stifles using a goniometer."}
{"compound": "CC1(C)OC(=O)C(OCC2CC2)=C1c1ccc(S(C)(=O)=O)cc1", "note": "[firocoxib, reference compound]", "values": [{"measurement": "peak pressure ratios, lameness and function scores compared to baseline", "result": "improved statistically significant mean peak pressure ratios on Day 13 and in mean lameness and mean function scores on Day 6 and 13 compared to baseline"}]}
